Key:
IGF1R tyrosine kinase = biological target: T1, IGF1R tyrosine kinase (Homo sapiens, UniProt P08069); assay: IGF1R tyrosine kinase assay (Kinase-Glo ATP depletion or PT66/PT100 AlphaScreen); settings: biochemical tyrosine kinase assay
T1 construct: 6×His- or GST-tagged kinase domain fragments of the corresponding RTKs expressed in baculovirus system; host or cells: baculovirus system
Method: (§1) To determine inhibition of several tyrosine kinases, such as IGF1R, InsR, Alk, TrkA and Jak2, kinase assays are conducted using either Kinase-Glo (Promega) or AlphaScreen (PerkinElmer) kinase assay platforms. The Kinase-Glo Luminescent Kinase Assay is a homogeneous method for measuring kinase activity by determining the amount of ATP remaining after a kinase reaction. The luminescent signal is proportional to the amount of ATP and inversely proportional to the amount of kinase activity. Tyrosine kinase PT66 AlphaScreen Assay is a high-sensitivity homogeneous, anti-phosphotyrosine antibody-mediated luminescent proximity method measuring, incorporation of phosphate in synthetic poly(Glu-Tyr) substrate. The kinase preparations used consist of purified recombinant, 6×His- or GST-tagged kinase domain fragments of the corresponding RTKs expressed in baculovirus system.
(§2) The IGF1R tyrosine kinase is assayed in Kinase-Glo ATP depletion assay using the synthetic polymer poly(Glu-Tyr, 4:1) (Sigma Chemicals) as a phosphoacceptor substrate. Each reaction mixture consists of a total volume of 10 μl and contains 40 ng of the enzyme, 5 μg of poly(Glu-Tyr), 10 μM of ATP and variable concentrations of test compounds. The mixtures also contain 50 mM Tris-HCl, pH 7.5; 5 mM MgCl2; 5 mM MnCl2; 2 mM DTT and 0.01% Tween 20. The reaction mixtures are incubated at 37° C. for 60 minutes and residual concentration of ATP in the mixture is determined by adding luciferase-containing Kinase-Glo (Promega) development reagent and counting luminescence levels using Fusion Universal Microplate Analyzer (PerkinElmer). Tested compounds are dissolved in dimethyl sulfoxide to a stock concentration of 10 mM and are typically evaluated in the assay at eight concentrations in 1 nM to 20 μM range, each in quadruplicate. […] IC50 values are derived by non-linear regression analysis using Prism 3.0 software (Graphpad Software). Other tyrosine kinases are assayed according to the same protocol after titrating amount of the enzyme to provide optimal signal-to-noise ratio and no more than 30% of total ATP consumption in the reaction conditions used.
(§3) The IGF1R tyrosine kinase is assayed in Phosphotyrosine (PT66 or PT 100) AlphaScreen chemiluminescent assay (PerkinElmer) according to the manufacturerer's recommendations. Each kinase reaction mixture consists of a total volume of 15 μl and contains 0.1-1 ng of the enzyme, 7 ng of biotinylated poly(Glu-Tyr) (Cis-Bio), 10 μM of ATP and variable concentrations of test compounds. The mixtures also contain 50 mM Tris-HCl, pH 7.5; 5 mM MgCl2; 5 mM MnCl2; 2 mM DTT and 0.01% Tween 20. The reaction mixtures are incubated at room temperature for 30 minutes. Ten (10) μl of the mixture of […] and donor beads (as supplied by the manufacturer) is then added to the reaction and the incubation is continued for an additional 60 minutes.

InsR = biological target: T2, InsR (Homo sapiens, UniProt P06213); assay: Tyrosine kinase assay (Kinase-Glo or AlphaScreen), InsR; settings: biochemical tyrosine kinase assay
T2 construct: 6×His- or GST-tagged kinase domain fragments of the corresponding RTKs expressed in baculovirus system; host or cells: baculovirus system
T2 sequence (P06213 1023-1298 limits assumed, species assumed): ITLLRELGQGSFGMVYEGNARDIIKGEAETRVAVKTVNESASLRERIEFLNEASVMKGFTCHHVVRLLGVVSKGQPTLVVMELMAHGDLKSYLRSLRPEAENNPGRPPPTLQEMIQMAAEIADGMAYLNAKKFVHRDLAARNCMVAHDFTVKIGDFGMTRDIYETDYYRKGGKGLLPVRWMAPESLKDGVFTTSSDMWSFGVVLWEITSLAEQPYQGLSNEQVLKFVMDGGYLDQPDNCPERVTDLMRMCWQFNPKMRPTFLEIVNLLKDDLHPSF
Method: as §1, §2, §3

Alk = biological target: T3, Alk (Homo sapiens, UniProt Q9UM73); assay: Tyrosine kinase assay (Kinase-Glo or AlphaScreen), Alk; settings: biochemical tyrosine kinase assay
T3 construct: 6×His- or GST-tagged kinase domain fragments of the corresponding RTKs expressed in baculovirus system; host or cells: baculovirus system
T3 sequence (Q9UM73 1116-1392 limits assumed, species assumed): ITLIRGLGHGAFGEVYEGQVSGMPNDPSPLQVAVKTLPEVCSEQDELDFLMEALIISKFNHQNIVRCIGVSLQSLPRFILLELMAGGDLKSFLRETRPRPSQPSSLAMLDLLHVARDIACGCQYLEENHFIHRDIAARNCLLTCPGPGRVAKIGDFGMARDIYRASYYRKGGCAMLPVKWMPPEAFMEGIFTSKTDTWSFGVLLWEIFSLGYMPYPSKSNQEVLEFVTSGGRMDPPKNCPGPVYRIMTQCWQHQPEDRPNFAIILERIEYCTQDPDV
Method: as §1, §2, §3

K562 = assay: Cell proliferation inhibition, Cell Titer-Glo, K562; type: cell-based; settings: Homo sapiens; cell proliferation assay, K562 cells
From the text: (§4) IGF1R and other tyrosine kinase inhibitors can inhibit the proliferation of certain cancer cell lines indicating their possible therapeutic utility for treating the corresponding cancer types. Cancer cell lines of interest and control normal lines, including CHO, HEK293, BA/F3, COLO205, PC3, DU145, MCF7, Panc1, ACHN, Hep G2, H460, K562, TT, U87-MG, CAOV-3, SK-MEL5, Karpas 299 and human multiple myeloma cell lines H929, MM1s, MM1r, UTMC2, CPM2, KMS11, My5, KMS12PE, My7, JJN3, KMS18, U266, SKMM2, RPMI-8226 are plated in white, clear-bottomed 384-well cell culture plates at 2500-5000 cells per well and supplied with dilutions of tested compounds After a desired period of time (typically 3 days), the number of viable cells is quantitated by using Cell Titer-Glo Luminescent Cell Viability Assay (Promega), a cell proliferation assay system based on detection of total amount of ATP present as a measure of cell metabolic activity. The plated cells are mixed with the Cell Titer-Glo developing reagent and counted in a luminescence multiwell plate reader according to the standard manufacturer's protocol to generate IC50 curves for cell proliferation inhibition. Results are typically reported as percent of growth (% viability =(OD72h(compound)−ODday0))/(OD72h(no compound)−ODday0). Alternatively, viable cells are quantitated by using the conventional colorimetric MTT assay. The MTT assay is based on the cleavage of the yellow tetrazolium salt MTT to purple formazan crystal by metabolic active cells. The formazan is then solubilized, and the concentration determined by optical density at 570 nm. The cells plated and incubated with a compound as described above are supplemented with the solution of MTT and incubated for 2-3 hours. The growth medium is removed and dimethyl sulfoxide is added into each well to dissolve the formazan. The absorbance is measured on an ELISA plate reader with a test wavelength of 570 nm and a background subtraction wavelength of 630 nm to obtain sample signal (OD570-OD630). […] The results are reported in terms of IC50 value for a particular compound and a cell line in the standard 3-day proliferation assay using Cell Titer-Glo. […] The results are reported in terms of IC50 value for a particular compound and a cell line in the standard 3-day proliferation assay using MTT assay.

Karpas-299 = assay: Cell proliferation inhibition, Cell Titer-Glo, Karpas-299; type: cell-based; settings: Homo sapiens; cell proliferation assay, Karpas-299 cells
From the text: as §4

Jak2 = biological target: T4, Jak2 (Homo sapiens, UniProt O60674); assay: Tyrosine kinase assay (Kinase-Glo or AlphaScreen), Jak2; settings: biochemical tyrosine kinase assay
T4 construct: 6×His- or GST-tagged kinase domain fragments of the corresponding RTKs expressed in baculovirus system; host or cells: baculovirus system
T4 sequence (O60674 849-1124 limits assumed, species assumed): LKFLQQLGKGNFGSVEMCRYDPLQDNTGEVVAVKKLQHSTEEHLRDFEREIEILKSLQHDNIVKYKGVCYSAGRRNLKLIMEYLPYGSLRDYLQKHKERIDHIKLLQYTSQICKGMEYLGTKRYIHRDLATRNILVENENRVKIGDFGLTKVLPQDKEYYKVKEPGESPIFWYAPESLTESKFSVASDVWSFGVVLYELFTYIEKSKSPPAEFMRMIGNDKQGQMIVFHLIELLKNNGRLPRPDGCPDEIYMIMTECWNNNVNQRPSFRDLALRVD
Method: as §1, §2, §3

Ba/F3 = assay: Cell proliferation inhibition, Cell Titer-Glo, Ba/F3; type: cell-based; settings: Mus musculus, BaF3; cell proliferation assay, Ba/F3 cells
From the text: as §4

T1 sequence (P08069 999-1274 limits assumed): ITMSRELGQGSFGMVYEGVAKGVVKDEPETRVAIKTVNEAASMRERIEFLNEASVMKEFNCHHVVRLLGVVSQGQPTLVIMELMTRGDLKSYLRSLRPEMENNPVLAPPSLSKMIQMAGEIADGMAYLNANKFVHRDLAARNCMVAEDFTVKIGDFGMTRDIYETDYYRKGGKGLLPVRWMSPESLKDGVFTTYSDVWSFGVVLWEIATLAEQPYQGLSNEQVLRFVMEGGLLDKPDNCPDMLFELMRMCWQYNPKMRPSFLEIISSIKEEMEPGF

| SMILES | IC50 (IGF1R tyrosine kinase) | IC50 (InsR) | IC50 (Alk) | IC50 (K562) | IC50 (Karpas-299) | IC50 (Jak2) | IC50 (Ba/F3) |
| --- | --- | --- | --- | --- | --- | --- | --- |
| CN1CCC(N2C(=O)c3cc4nc(-c5c(N[C@@H](CO)Cc6ccccc6)cc[nH]c5=O)[nH]c4cc3C2=O)CC1 [compound 5] | 0.5 to 5 µM | 0.5 to 5 µM | < 0.5 µM | 0.5 to 5 µM | 0.5 to 5 µM | 0.5 to 5 µM | 0.5 to 5 µM |
| CN1CCC(N2C(=O)c3cc4nc(-c5c(NCC(O)c6ccncc6)cc[nH]c5=O)[nH]c4cc3C2=O)CC1 (stereo not drawn) [compound 7] | 0.5 to 5 µM | 5 to 15 µM | > 15 µM | – | – | 0.5 to 5 µM | – |
| O=C1c2cc3nc(-c4c(NC[C@@H](O)c5cccc(Cl)c5)ccnc4O)[nH]c3cc2C(=O)N1CCN1CCOCC1 [compound 8] | 0.5 to 5 µM | 0.5 to 5 µM | 0.5 to 5 µM | > 15 µM | > 15 µM | 0.5 to 5 µM | > 15 µM |
| O=C1c2cc3nc(-c4c(NC[C@@H](O)c5cccc(Cl)c5)cc[nH]c4=O)[nH]c3cc2C(=O)N1CCc1c[nH]cn1 [compound 9] | 0.5 to 5 µM | 0.5 to 5 µM | 0.5 to 5 µM | – | – | 0.5 to 5 µM | – |
| COCCN1CCC(CN2C(=O)c3cc4nc(-c5c(NC[C@@H](O)c6cccc(Cl)c6)cc[nH]c5=O)[nH]c4cc3C2=O)CC1 [compound 24] | < 0.5 µM | < 0.5 µM | 0.5 to 5 µM | – | – | 0.5 to 5 µM | – |
| O=C1c2cc3nc(-c4c(NC[C@@H](O)c5cccc(Cl)c5)cc[nH]c4=O)[nH]c3cc2C(=O)N1C(CO)CO [compound 25] | < 0.5 µM | < 0.5 µM | 5 to 15 µM | – | – | < 0.5 µM | – |
| O=C1c2cc3nc(-c4c(NC[C@@H](O)c5cccc(Cl)c5)cc[nH]c4=O)[nH]c3cc2C(=O)N1CCc1cccnc1 [compound 27] | > 15 µM | > 15 µM | > 15 µM | – | – | > 15 µM | – |
| CN1CCC(N2C(=O)c3cc4nc(-c5c(NCC(O)COc6ccc(Cl)cc6)cc[nH]c5=O)[nH]c4cc3C2=O)CC1 (stereo not drawn) [compound 39] | 0.5 to 5 µM | 0.5 to 5 µM | 0.5 to 5 µM | 0.5 to 5 µM | 0.5 to 5 µM | 0.5 to 5 µM | 0.5 to 5 µM |
| CC(Nc1cc[nH]c(=O)c1-c1nc2cc3c(cc2[nH]1)C(=O)N(C1CCN(C)CC1)C3=O)C1COc2ccccc2O1 (stereo not drawn) [compound 40] | 5 to 15 µM | 5 to 15 µM | 5 to 15 µM | 5 to 15 µM | 5 to 15 µM | 0.5 to 5 µM | 0.5 to 5 µM |
| O=C1c2cc3nc(-c4c(NC[C@@H](O)c5cccc(Cl)c5)cc[nH]c4=O)[nH]c3cc2C(=O)N1CCO [compound 43] | 0.5 to 5 µM | 0.5 to 5 µM | > 15 µM | 5 to 15 µM | 5 to 15 µM | 0.5 to 5 µM | > 15 µM |
| O=C1c2cc3nc(-c4c(NC[C@@H](O)c5cccc(Cl)c5)cc[nH]c4=O)[nH]c3cc2C(=O)N1CCCO [compound 44] | 0.5 to 5 µM | 0.5 to 5 µM | > 15 µM | 5 to 15 µM | 5 to 15 µM | 0.5 to 5 µM | > 15 µM |
| O=C1c2cc3nc(-c4c(NC[C@@H](O)c5cccc(Cl)c5)cc[nH]c4=O)[nH]c3cc2C(=O)N1CCCn1ccnc1 [compound 45] | 0.5 to 5 µM | 0.5 to 5 µM | 0.5 to 5 µM | – | 5 to 15 µM | 0.5 to 5 µM | 5 to 15 µM |
| O=C1c2cc3nc(-c4c(NC[C@@H](O)c5cccc(Cl)c5)cc[nH]c4=O)[nH]c3cc2C(=O)N1CC(O)CO (stereo partly drawn) [compound 46] | < 0.5 µM | 0.5 to 5 µM | > 15 µM | – | 5 to 15 µM | > 15 µM | 5 to 15 µM |
| O=C1CCCN1CCCN1C(=O)c2cc3nc(-c4c(NC[C@@H](O)c5cccc(Cl)c5)cc[nH]c4=O)[nH]c3cc2C1=O [compound 47] | 0.5 to 5 µM | 0.5 to 5 µM | 5 to 15 µM | – | 5 to 15 µM | 0.5 to 5 µM | 5 to 15 µM |
| Cc1ccc(OC[C@H](O)CNc2cc[nH]c(=O)c2-c2nc3cc4c(cc3[nH]2)C(=O)N(CCCN2CCCC2)C4=O)c(C)c1 [compound 48] | < 0.5 µM | < 0.5 µM | 5 to 15 µM | – | 0.5 to 5 µM | 0.5 to 5 µM | 0.5 to 5 µM |
| COCCCN1C(=O)c2cc3nc(-c4c(NC[C@@H](O)COc5ccc(C)cc5C)cc[nH]c4=O)[nH]c3cc2C1=O [compound 109] | > 15 µM | > 15 µM | > 15 µM | – | 0.5 to 5 µM | > 15 µM | > 15 µM |
| Cc1c(Cl)cccc1OC[C@H](O)CNc1cc[nH]c(=O)c1-c1nc2cc3c(cc2[nH]1)C(=O)N(CCCN1CCCC1)C3=O [compound 115] | < 0.5 µM | < 0.5 µM | 0.5 to 5 µM | – | 5 to 15 µM | 0.5 to 5 µM | > 15 µM |
| O=C1c2cc3nc(-c4c(NC[C@@H](O)COc5c(F)ccc(Cl)c5F)cc[nH]c4=O)[nH]c3cc2C(=O)N1CC1CCN(CCO)CC1 [compound 120] | < 0.5 µM | < 0.5 µM | 0.5 to 5 µM | – | 0.5 to 5 µM | 0.5 to 5 µM | 0.5 to 5 µM |
| Cc1c(Cl)cccc1OC[C@H](O)CNc1cc[nH]c(=O)c1-c1nc2c(C)c3c(cc2[nH]1)C(=O)N(C1CCN(C)CC1)C3=O [compound 121] | 0.5 to 5 µM | 0.5 to 5 µM | 0.5 to 5 µM | – | 5 to 15 µM | 0.5 to 5 µM | 0.5 to 5 µM |
| Cc1c2c(cc3[nH]c(-c4c(NC[C@@H](O)COc5c(F)ccc(Cl)c5F)cc[nH]c4=O)nc13)C(=O)N(C1CCN(C)CC1)C2=O [compound 122] | < 0.5 µM | 0.5 to 5 µM | 5 to 15 µM | – | > 15 µM | 0.5 to 5 µM | > 15 µM |
| COc1ccc2c(ccn2C[C@H](O)CNc2cc[nH]c(=O)c2-c2nc3cc4c(cc3[nH]2)CN(C2CCN(C)CC2)C4=O)c1 [compound 170] | 5 to 15 µM | 0.5 to 5 µM | 5 to 15 µM | – | – | 0.5 to 5 µM | – |

From patent US8063225B2, “Tricyclic compound derivatives useful in the treatment of neoplastic diseases, inflammatory disorders and immunomodulatory disorders” (Chembridge Corporation, priority 2006, dated 2011)
